{
  "source": "patent US20110039721A1",
  "about": "“METHOD FOR PREDICTION ABOUT CARCINOGENICITY OF SUBSTANCE IN RODENT” (Chemicals Evaluation and Research Institute, priority 2007, published 2011)",
  "key": {"[1]": {"details": "classification of the substance (M+/M−); cited from earlier work"}, "[2]": {"system": "mRNA expressed from the genes (A) to (D) in rat liver", "assay": "Behavior of genes (mRNA expression level, oligo-DNA microarray) in rat liver after 28-day oral administration", "format": "in vivo", "details": "mRNA vs vehicle control group", "in_short": "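Groups of four male F344 SPF rats aged 5 weeks are gavaged once a day for 28 days with test chemical in solvent or with solvent alone at equal volume. Total RNA comes from liver taken on day 28. Fold change of 1.5 or 1/1.5 versus control, directionally consistent, defines significance.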"}, "liver": {"system": "liver", "details": "in vivo; cited from earlier work"}, "rodent": {"system": "rodent", "details": "in vivo; cited from earlier work"}, "[3]": {"details": "gene group (A), Unigene No. Rn.167075"}, "[4]": {"details": "gene group (C), Unigene No. Rn.120914"}},
  "data": [
    {"smiles": "C=C(C)[C@H]1CC=C(C)CC1", "note": "[TS024, D-Limonene]", "values": [
      {"measurement": "Mutagenicity by Ames test", "setting": "[1]", "result": "M−"}
    ]},
    {"smiles": "O=C(O)C1C(C(=O)O)C2(Cl)C(Cl)=C(Cl)C1(Cl)C2(Cl)Cl", "note": "(stereo not drawn) [TS078, Chlorendic acid]", "values": [
      {"measurement": "Behavior of gene caused by administration of chemical substance, Gene No. 4846", "setting": "[2]; gene group (A), Unigene No. Rn.144554", "result": "−"},
      {"measurement": "Behavior of gene caused by administration of chemical substance, Gene No. 2026", "setting": "[2]; [3]", "result": "+"},
      {"measurement": "Behavior of gene caused by administration of chemical substance, Gene No. 4218", "setting": "[2]; [3]", "result": "−"},
      {"measurement": "Behavior of gene caused by administration of chemical substance, Gene No. 6182", "setting": "[2]; gene group (A), Unigene No. Rn.5834", "result": "−"},
      {"measurement": "Behavior of gene caused by administration of chemical substance, Gene No. 5600", "setting": "[2]; gene group (A), Unigene No. Rn.9836", "result": "−"},
      {"measurement": "Behavior of gene caused by administration of chemical substance, Gene No. 1494", "setting": "[2]; gene group (B), Unigene No. Rn.1430", "result": "+"},
      {"measurement": "Behavior of gene caused by administration of chemical substance, Gene No. 2045", "setting": "[2]; gene group (B), Unigene No. Rn.19329", "result": "+"},
      {"measurement": "Behavior of gene caused by administration of chemical substance, Gene No. 2203", "setting": "[2]; gene group (B), Unigene No. Rn.21240", "result": "+"},
      {"measurement": "Behavior of gene caused by administration of chemical substance, Gene No. 533", "setting": "[2]; gene group (C), Unigene No. Rn.106184", "result": "−"},
      {"measurement": "Behavior of gene caused by administration of chemical substance, Gene No. 725", "setting": "[2]; gene group (C), Unigene No. Rn.108075", "result": "−"},
      {"measurement": "Behavior of gene caused by administration of chemical substance, Gene No. 1163", "setting": "[2]; gene group (C), Unigene No. Rn.11766", "result": "+"},
      {"measurement": "Behavior of gene caused by administration of chemical substance, Gene No. 4973", "setting": "[2]; gene group (C), Unigene No. Rn.118529", "result": "+"},
      {"measurement": "Behavior of gene caused by administration of chemical substance, Gene No. 4095", "setting": "[2]; gene group (C), Unigene No. Rn.119024", "result": "−"},
      {"measurement": "Behavior of gene caused by administration of chemical substance, Gene No. 1334", "setting": "[2]; [4]", "result": "−"},
      {"measurement": "Behavior of gene caused by administration of chemical substance, Gene No. 6620", "setting": "[2]; [4]", "result": "−"},
      {"measurement": "Behavior of gene caused by administration of chemical substance, Gene No. 6303", "setting": "[2]; gene group (C), Unigene No. Rn.123063", "result": "−"},
      {"measurement": "Behavior of gene caused by administration of chemical substance, Gene No. 5878", "setting": "[2]; gene group (C), Unigene No. Rn.143213", "result": "−"},
      {"measurement": "Behavior of gene caused by administration of chemical substance, Gene No. 1131", "setting": "[2]; gene group (C), Unigene No. Rn.144946", "result": "−"},
      {"measurement": "Behavior of gene caused by administration of chemical substance, Gene No. 1562", "setting": "[2]; gene group (C), Unigene No. Rn.14744", "result": "−"},
      {"measurement": "Behavior of gene caused by administration of chemical substance, Gene No. 1741", "setting": "[2]; gene group (C), Unigene No. Rn.1647", "result": "−"},
      {"measurement": "Behavior of gene caused by administration of chemical substance, Gene No. 893", "setting": "[2]; gene group (C), Unigene No. Rn.164817", "result": "−"},
      {"measurement": "Behavior of gene caused by administration of chemical substance, Gene No. 6026", "setting": "[2]; gene group (C), Unigene No. Rn.167685", "result": "−"},
      {"measurement": "Behavior of gene caused by administration of chemical substance, Gene No. 154", "setting": "[2]; gene group (C), Unigene No. Rn.185941", "result": "−"},
      {"measurement": "Behavior of gene caused by administration of chemical substance, Gene No. 1993", "setting": "[2]; gene group (C), Unigene No. Rn.18728", "result": "−"},
      {"measurement": "Behavior of gene caused by administration of chemical substance, Gene No. 813", "setting": "[2]; gene group (C), Unigene No. Rn.201760", "result": "−"},
      {"measurement": "Behavior of gene caused by administration of chemical substance, Gene No. 2494", "setting": "[2]; gene group (C), Unigene No. Rn.23969", "result": "−"},
      {"measurement": "Behavior of gene caused by administration of chemical substance, Gene No. 2546", "setting": "[2]; gene group (C), Unigene No. Rn.24561", "result": "−"},
      {"measurement": "Behavior of gene caused by administration of chemical substance, Gene No. 3776", "setting": "[2]; gene group (C), Unigene No. Rn.43232", "result": "−"},
      {"measurement": "Behavior of gene caused by administration of chemical substance, Gene No. 3929", "setting": "[2]; gene group (C), Unigene No. Rn.4620", "result": "−"},
      {"measurement": "Behavior of gene caused by administration of chemical substance, Gene No. 1119", "setting": "[2]; gene group (C), Unigene No. Rn.9757", "result": "−"},
      {"measurement": "Behavior of gene caused by administration of chemical substance, Gene No. 6742", "setting": "[2]; gene group (C), Unigene No. Rn.9779", "result": "−"},
      {"measurement": "Behavior of gene caused by administration of chemical substance, Gene No. 5634", "setting": "[2]; gene group (C), Unigene No. Rn.9862", "result": "+"},
      {"measurement": "Behavior of gene caused by administration of chemical substance, Gene No. 5726", "setting": "[2]; gene group (D), Unigene No. Rn.9939", "result": "−"},
      {"measurement": "Liver carcinogenicity", "setting": "liver", "result": "Cr+"},
      {"measurement": "Carcinogenicity", "setting": "rodent", "result": "C+"}
    ]}
  ]
}
